{"source": "patent US20210379078A1", "about": "“Killing Senescent Cells And Treating Senescence-Associated Conditions Using A Bcl Inhibitor And An Mcl-1 Inhibitor” (Unity Biotechnology, Inc., priority 2018, published 2021)", "key": {"[1]": {"conditions": "cited from earlier work"}, "BIM-Bcl-xL interactions": {"biological_target": "T1, BIM-Bcl-xL interactions (Mus musculus, UniProt Q64373)", "T1 construct": "Lysates for co-IP experiments were prepared from: (a) lungs from mice; endogenous in cells; host or cells: mouse lung tissue (oral aspiration dosing) and mouse bronchiotracheal epithelial (MBE) cells", "T1 sequence (Q64373 whole entry)": "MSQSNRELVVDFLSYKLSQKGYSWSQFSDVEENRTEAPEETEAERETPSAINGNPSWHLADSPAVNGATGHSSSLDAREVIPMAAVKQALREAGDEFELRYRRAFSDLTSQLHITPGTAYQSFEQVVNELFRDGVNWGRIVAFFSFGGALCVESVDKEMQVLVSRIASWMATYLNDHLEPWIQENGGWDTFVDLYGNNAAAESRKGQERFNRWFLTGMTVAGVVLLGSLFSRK", "assay": "Target engagement co-immunoprecipitation with anti-BIM, western blot for Bcl-xL", "type": "cell-based", "method": "Immunoprecipitations were performed using rabbit monoclonal anti-BIM (C34C5) antibodies (Cell Signaling Technology®) bound by Protein A-coated magnetic beads (Life Technologies®). 100 ul lysate was incubated with 10 μL of magnetic beads (pre-coated with 2 μg of antibody) for 1 hour at 4° C. in a Thermal Mixer at 1300 rpm (VWR®). After immunocapture, samples were washed three times with cold lysis buffer and eluted from the beads using non-reducing NuPAGE LDS Sample Buffer® (Life Technologies®). […]"}, "Mcl-1 binding to BIM": {"system": "Mcl-1 binding to BIM", "assay": "Target engagement co-immunoprecipitation with anti-BIM, western blot for Mcl-1", "type": "cell-based", "conditions": "OA-dosed mouse lungs (8 hours) and MBE cells (4 hours)", "from_the_text": "A target engagement assay was developed to determine Bcl-xL and Mcl-1's respective interaction with BIM both in vivo in mice, or cells in culture, in order to predict senolysis. The respective binding pockets of Bcl-xL and Mcl-1 proteins under normal conditions sequestrate pro-apoptotic proteins, such as BIM. Co-immunoprecipitation (co-IP) was employed to study protein-protein interactions in order to determine if candidate senolytics can effectively displace Bcl-xL or Mcl-1 from BIM protein.\nLysates for co-IP experiments were prepared from: (a) lungs from mice that had been dosed for 8 hours by oral aspiration (OA) with either a candidate senolytic Bcl (Compound 1) or Mcl-1 inhibitor (S-63845), or a control vehicle treatment; or (b) mouse bronchiotrachael epithelial (MBE) cells, dosed for 4 hours with the same Bcl or Mcl-1 inhibitor, using a non-denaturing lysis buffer: PBS pH 7.4, 2% CHAPS, supplemented with a protease inhibitor cocktail (Roche®)). For every 0.25 gram of tissue 1 mL of lysis buffer was added to the sample, and next tissue was homogenized using a Precellys 24 (Bertin Technologies®; 3 cycles of 20 s and 20 s pause). Homogenates were cleared by centrifugation at 13000 g at 4° C. for 10 min, and the supernatant lysate was transferred to new tubes, aliquoted, flash-frozen using liquid nitrogen, and stored at −80° C. […]"}}, "data": [{"smiles": "CN(C)CC[C@H](CSc1ccccc1)Nc1ccc(S(=O)(=O)NC(=O)c2ccc(N3CCN(Cc4ccccc4-c4ccc(Cl)cc4)CC3)cc2)cc1[N+](=O)[O-]", "note": "[ABT-737]", "values": [{"measurement": "dose-limiting toxicity in human patients", "setting": "[1]", "value": "dose-limiting thrombocytopenia"}]}, {"smiles": "Cc1c(C(=O)O)c(-c2cccc(N3CCN(c4ccc(NS(=O)(=O)c5ccc(N[C@H](CCN6CCC(OP(=O)(O)O)CC6)CSc6ccccc6)c(S(=O)(=O)C(F)(F)F)c5)cc4)CC3)c2)c(-c2ccc(Cl)cc2)n1C(C)C", "note": "[Compound 1]", "values": [{"measurement": "BIM-Bcl-xL interactions (co-IP)", "setting": "BIM-Bcl-xL interactions; OA-dosed mouse lungs (8 hours) and MBE cells (4 hours)", "value": "blocked"}, {"measurement": "Mcl-1 binding to BIM (co-IP)", "setting": "Mcl-1 binding to BIM", "value": "compensatory Mcl-1 binding to BIM was observed"}]}, {"smiles": "Cc1c(-c2c(-c3ccc(F)o3)sc3ncnc(O[C@H](Cc4ccccc4OCc4ccnn4CC(F)(F)F)C(=O)O)c23)ccc(OCCN2CCN(C)CC2)c1Cl", "note": "[Compound S-63845]", "values": [{"measurement": "Bcl-xL binding to BIM when Mcl-1 is inhibited (co-IP)", "setting": "BIM-Bcl-xL interactions; S-63845 at 1 uM and 10 uM", "value": "Bcl-xL appeared to compensate for BIM binding"}]}]}
